“Also recorded” adds a separate entry of the source.
What was measured:
[1] = system: A549 Cell line (Lung Cancer Cell line); test: MTT cell proliferation assay, A549 Cell line; format: cell-based, human; conditions: for viability at 0.01 µM / viability at 0.1 µM / viability at 2.5 µM / viability at 5 µM / viability at 10 µM: Homo sapiens, 72 h, MTT; for viability at 0.01 µM: A549, 0.01 μM; for viability at 0.1 µM: A549, 0.1 μM; for viability at 2.5 µM: A549, 2.5 μM; for viability at 5 µM: A549, 5 μM; for viability at 10 µM: A549, 10 μM
Method: (§1) 1. Protocol Followed for Anti Cancer Activity and Results, Cell Proliferation Assays: Cell lines used herein were purchased from NCCS (National Center for Cell Sciences) Pune, India. Invitro Activity was performed in NCL (National Chemical Laboratory) Pune. Each cell line was plated in 96-well microtiter plates (10,000 cells per well), and serial dilutions of indicated compounds were added. At the end of the incubation period (72 h at 37° C.), cell viability was determined by a tetrazolium dye, MTT (3-(4,5-dimethylthiazol-2-yl)-2,5-diphenyl tetrazolium bromide) (Promega, USA). The formazan crystals were dissolved in DMSO, and the absorbance at 600 nm was recorded using an ELISA plate reader. IC50 values were calculated using nonlinear regression and defined as the concentration needed for a 50% reduction in absorbance of treated versus untreated control cells.
By using the above procedure, the compounds of the invention were tested on A549 Cell line and the results obtained are presented below in table 4, Refer FIG. 1.

[2] = system: HOP-62 Cell line; test: MTT cell proliferation assay, HOP-62 Cell line; format: cell-based; conditions: for viability at 0.01 µM / viability at 0.1 µM / viability at 2.5 µM / viability at 5 µM / viability at 10 µM: Homo sapiens, 72 h, MTT; for viability at 0.01 µM: HOP-62, 0.01 μM; for viability at 0.1 µM: HOP-62, 0.1 μM; for viability at 2.5 µM: HOP-62, 2.5 μM; for viability at 5 µM: HOP-62, 5 μM; for viability at 10 µM: HOP-62, 10 μM
Method: as §1
By using the above procedure, the compounds of the invention were tested on HOP-62 Cell line and the results obtained are presented below in table 6, Refer FIG. 3.

[3] = system: MDA-MB-436 Cell line; test: MTT cell proliferation assay, MDA-MB-436 Cell line; format: cell-based; conditions: for viability at 0.01 µM / viability at 0.1 µM / viability at 2.5 µM / viability at 5 µM / viability at 10 µM: Homo sapiens, 72 h, MTT; for viability at 0.01 µM: MDA-MB-436, 0.01 μM; for viability at 0.1 µM: MDA-MB-436, 0.1 μM; for viability at 2.5 µM: MDA-MB-436, 2.5 μM; for viability at 5 µM: MDA-MB-436, 5 μM; for viability at 10 µM: MDA-MB-436, 10 μM
Method: as §1
By using the above procedure, the compounds of the invention were tested on MDA-MB-436 Cell line and the results obtained are presented below in table 7, Refer FIG. 4.

[4] = system: U87MG Cell line (Glioblastoma cell line); test: MTT cell proliferation assay, U87MG Cell line; format: cell-based; conditions: for viability at 0.01 µM / viability at 0.1 µM / viability at 2.5 µM / viability at 5 µM / viability at 10 µM: Homo sapiens, U-87 MG, U87MG, 72 h, MTT
Method: as §1
By using the above procedure, the compounds of the invention were tested on U87MG Cell line (glioblastoma cell line) and the results obtained are presented below in table 8, Refer FIG. 5.

[5] = system: MCF-7 Cell line; test: MTT cell proliferation assay, MCF-7 Cell line; format: cell-based; conditions: for viability at 0.01 µM / viability at 0.1 µM / viability at 2.5 µM / viability at 5 µM / viability at 10 µM: Homo sapiens, MCF7, 72 h, MTT; for viability at 0.01 µM: MCF-7, 0.01 μM; for viability at 0.1 µM: MCF-7, 0.1 μM; for viability at 2.5 µM: MCF-7, 2.5 μM; for viability at 5 µM: MCF-7, 5 μM; for viability at 10 µM: MCF-7, 10 μM
Method: as §1
Table 4 indicates anticancer activity against A549 Cell line. The Gefitinib was used as standard and % cell Viable was measured compared to control. The procedure used was MTT assay as mentioned. […] By using the above procedure, the compounds of the invention were tested on MCF-7 Cell line and the results obtained are presented below in table 5, Refer FIG. 2.

[6] = Log P (Table 3); format: physicochemical; conditions: no method given
[7] = compared among 15 molecules and with Gefitinib, listed as M1

Structure (SMILES)	viability at 0.01 µM [1]	viability at 0.1 µM [1]	viability at 2.5 µM [1]	viability at 5 µM [1]	viability at 10 µM [1]	viability at 0.01 µM [2]	viability at 0.1 µM [2]	viability at 2.5 µM [2]	viability at 5 µM [2]	viability at 10 µM [2]	viability at 0.01 µM [3]	viability at 0.1 µM [3]	viability at 2.5 µM [3]	viability at 5 µM [3]	viability at 10 µM [3]	viability at 0.01 µM [4]	viability at 0.1 µM [4]	viability at 2.5 µM [4]	viability at 5 µM [4]	viability at 10 µM [4]	further results
Nc1nc(Nc2ccc(Br)cc2F)sc1-c1nc2ccccc2[nH]1 [Molecule S4-M7, 5-(1H-benzo[d]imidazol-2-yl)-N^2-(4-bromo-2-fluorophenyl)thiazole-2,4-diamine]	97.1%	90.9%	81.8%	71.8%	62.8%	102%	101%	100%	100%	90.9%	100%	99.9%	101%	93.8%	91.8%	98.1%	94.9%	93.8%	90.8%	85.8%	melting point: 200 to 202 °C; viability at 0.01 µM [5]: 100%; viability at 0.1 µM [5]: 101%; viability at 2.5 µM [5]: 101%; viability at 5 µM [5]: 101%; viability at 10 µM [5]: 101%; logP [6]: 3.2
Nc1nc(Nc2ccccc2)sc1-c1nc2ccccc2[nH]1 [Molecule S4-M1, 5-(1H-benzo[d]imidazol-2-yl)-N^2-phenylthiazole-2,4-diamine]	49.1%	39.1%	29.1%	15.1%	10.9%	54.1%	42.1%	34.1%	22.1%	12.9%	82.8%	70.4%	67.1%	54.6%	40.9%	40.8%	32.4%	23.1%	14.6%	8.94%	anticancer activity against A549 Cell line (in words) ([1]; compared among 15 molecules and with Gefitinib): most active; melting point: 268 to 270 °C; anticancer activity against HOP-62 Cell line (in words) [2, 7]: most active; also recorded: Invitro activity comparable to standard Gefitinib; anticancer activity against MDA-MB-436 Cell line (in words) [3, 7]: most active; also recorded: Invitro activity comparable to standard Gefitinib; anticancer activity against U87-MG Cell line (in words) ([4]; compared among 15 molecules): most active; viability at 0.01 µM [5]: 69.8%; viability at 0.1 µM [5]: 60.4%; viability at 2.5 µM [5]: 49.1%; viability at 5 µM [5]: 42.6%; viability at 10 µM [5]: 30.9%; anticancer activity against MCF-7 Cell line (in words) ([5]; compared among 15 molecules, listed as M1): most active; also recorded: showing Invitro activity; logP [6]: 3.02
Cc1ccc2[nH]c(-c3sc(Nc4cccc(C(F)(F)F)c4)nc3N)nc2c1 [Molecule S4-M13, N^2-(3-(trifluoromethyl)phenyl)-5-(5-methyl-1H-benzo[d]imidazol-2-yl)thiazole-2,4-diamine]	99.4%	82.9%	73.6%	61.6%	50.6%	99.4%	96.9%	90.4%	80.6%	75.6%	98.4%	96.9%	97.4%	97.6%	97.9%	95.8%	83.7%	71.2%	60.8%	53.8%	viability at 0.01 µM [5]: 99.4%; viability at 0.1 µM [5]: 92.9%; viability at 2.5 µM [5]: 81.4%; viability at 5 µM [5]: 72.6%; viability at 10 µM [5]: 66.9%
Cc1ccc(Nc2nc(N)c(-c3nc4cc(C)ccc4[nH]3)s2)cc1 [Molecule S4-M14, 5-(5-methyl-1H-benzo[d]imidazol-2-yl)-N2-p-tolylthiazole-2,4-diamine]	96%	84.1%	71.1%	62.1%	51.1%	101%	95.1%	93.6%	88.3%	80.1%	99%	98.1%	98.6%	99.3%	94.1%	87%	78.1%	67.6%	53.3%	46.1%	viability at 0.01 µM [5]: 94%; viability at 0.1 µM [5]: 90.1%; viability at 2.5 µM [5]: 83.6%; viability at 5 µM [5]: 69.3%; viability at 10 µM [5]: 65.1%
COc1ccc(Nc2nc(N)c(-c3nc4cc(C)ccc4[nH]3)s2)cc1 [Molecule S4-M11, N^2-(4-methoxyphenyl)-5-(5-methyl-1H-benzo[d]imidazol-2-yl)thiazole-2,4-diamine]	94.8%	80.7%	72.8%	63.8%	51.8%	157%	101%	98.2%	96.8%	91.8%	96.8%	92.7%	84.2%	73.8%	61.8%	86.8%	71.7%	60.2%	49.8%	38.8%	viability at 0.01 µM [5]: 157%; viability at 0.1 µM [5]: 133%; viability at 2.5 µM [5]: 110%; viability at 5 µM [5]: 101%; viability at 10 µM [5]: 101%
Cc1ccc2[nH]c(-c3sc(Nc4ccc(Cl)cc4)nc3N)nc2c1 [Molecule S4-M12, N^2-(4-chlorophenyl)-5-(5-methyl-1H-benzo[d]imidazol-2-yl)thiazole-2,4-diamine]	93.1%	81.4%	69.9%	58.9%	49.9%	102%	95.4%	92.9%	85.9%	79.9%	94.1%	89.4%	79.9%	65.9%	51.8%	92.1%	81.4%	73.9%	61.9%	49.8%	viability at 0.01 µM [5]: 99.1%; viability at 0.1 µM [5]: 91.4%; viability at 2.5 µM [5]: 85.9%; viability at 5 µM [5]: 74.9%; viability at 10 µM [5]: 70.8%
Cc1ccc2[nH]c(-c3sc(Nc4ccccc4)nc3N)nc2c1 [Molecule S4-M10, 5-(5-methyl-1H-benzo[d]imidazol-2-yl)-N2-phenylthiazole-2,4-diamine]	90.9%	81%	70.4%	61.4%	49.4%	104%	100%	99.4%	95.4%	89.4%	92.9%	84%	76.4%	61.4%	49.4%	88.9%	75%	68.4%	55.4%	41.4%	viability at 0.01 µM [5]: 141%; viability at 0.1 µM [5]: 120%; viability at 2.5 µM [5]: 104%; viability at 5 µM [5]: 100%; viability at 10 µM [5]: 100%

From patent US9862712B2, “Benzimidazole based EGFR inhibitors” (COUNCIL OF SCIENTIFIC & INDUSTRIAL RESEARCH, priority 2014, dated 2018)
